In patent US6660309B2, “Antitumor agent” (Biozak, Inc., priority 2001, dated 2003):

How the values were obtained:
[1] = tested on: βTC-6 cells; assay: Tolbutamide-induced insulin secretion in βTC-6 cells (FIG. 2); format: cell-based
Method: FIG. 2 is a graph showing the effect of Composition A on tolbutamide-induced insulin secretion in βTC-6 cells.
(§1) In order to avoid interference from the natural insulin secretagogue glucose, the effect of Composition A on insulin secretion was studied under glucose-free conditions. The sulfonylurea compound, tolbutamide was used as the insulin secretagogue in the studies of the effect of Composition A on stimulated insulin secretion.
(§2) Insulin assays were performed using the rat insulin assay kit purchased from Crystal Chemists, Inc. (Chicago, Ill., USA). This kit uses a in an Enzyme Linked Immunosorbent Assay (non-competitive sandwich method). The assay was performed according to the manufacturer's protocol. Briefly, the standard or sample (5 μl) diluted with a sample diluent was added to the wells of a multi-well polystyrene plate. The wells were precoated with antiinsulin antibody. After 2 hours of incubation, the wells were thoroughly washed with a washing buffer. A peroxidase-conjugated antiinsulin antibody solution was then added to the well. […] The color was read in an microplate reader using a 405 filter. […]
(§3) The effect of Composition A on tolbutamide-induced insulin secretion in HIT-T15 and βTC-6 cells is shown in […]. […] Samples were measured 1 hour later. […]

[2] = tested on: HIT-T15 cells; assay: Tolbutamide-induced insulin secretion in HIT-T15 cells (FIG. 3); format: cell-based; settings: FIG. 3, tolbutamide alone, 1 hour; without tolbutamide about 0.17
Method: FIG. 3 is a graph showing the effect of Composition A on tolbutamide-induced insulin secretion in HIT-T15 cells.
as §1, §2, §3

## CCCCNC(=O)NS(=O)(=O)c1ccc(C)cc1 [tolbutamide]
[1]; FIG. 2, tolbutamide 10 μg/ml alone, 1 hour, without tolbutamide 0.9
  Insulin production with tolbutamide alone: 1.2 ng/ml/mg protein
[1]; βTC-6, 1-hour period following glucose deprivation and replacement of the medium
  More insulin secreted by tolbutamide-treated cells than by untreated cells: approximately 30%
[2]
  Insulin secretion with tolbutamide alone: about 0.3 ng/ml/mg protein
